# In patent US20040197315A1, “Dopaminergic cell lines stably expressing A53T alpha-synuclein and methods of using same” (priority 2002, published 2004):
# Where a SMILES comes first, the peptide text is derived from it. The star is where a group is joined. Cbz = O=C(OCc1ccccc1)*
# Columns and labels:
# [1] = tested on: PC12 cell lines expressing A53T mutant α-synuclein; test: Trypan blue assay of cell death in mutant A53T α-synuclein PC12 lines; assay type: cell-based, rat; settings: 50 μM, data not shown
# Procedure: The day before the trypan blue assay, subconfluent cultures were rinsed twice with complete medium to remove cells at late stages of degeneration. The following day the cells were triturated off the dish and five drops of the cellular suspension were added in a tube together with five drops of Trypan blue solution (0.4%; Sigma-Aldrich, St. Louis, Mo.). After light mixing, the cells were placed on a glass slide, coverslipped, and visualized under 20× magnification. For each line, three fields of 100 cells each were assessed for the percentage of Trypan blue-positive cells. The results reported are the mean±SEM (n=3).
# To test for potential involvement of caspases in cellular degeneration associated with expression of A53T α-synuclein, control, wild-type, and mutant lines were examined for basal caspase-3-like activity, as measured by cleavage of the fluorogenic substrate DEVD-AFC (15 μM; Enzyme Systems Products, Livermore, Calif.). No difference was found in basal activity among cell lines (data not shown). […] It can be concluded that PC12 cell lines expressing A53T mutant α-synuclein display enhanced cellular degeneration that appears nonapoptotic by morphological and biochemical criteria.
# proteasome = target: T1, proteasome (Rattus norvegicus, UniProt P28075); test: Assay for chymotrypsin-like activity of the proteasome in PC12 cell lysates (LLVY-AFC substrate); assay type: cell-based; settings: cells treated overnight with 0.5 μM inhibitor; lysate assayed with 100 μM LLVY-AFC, 37° C., 10 min
# T1 construct: endogenous in cells; host or cells: rat PC12 clonal lines (empty vector, or stably expressing human wild-type or A53T alpha-synuclein)
# T1 sequence (P28075 60-263): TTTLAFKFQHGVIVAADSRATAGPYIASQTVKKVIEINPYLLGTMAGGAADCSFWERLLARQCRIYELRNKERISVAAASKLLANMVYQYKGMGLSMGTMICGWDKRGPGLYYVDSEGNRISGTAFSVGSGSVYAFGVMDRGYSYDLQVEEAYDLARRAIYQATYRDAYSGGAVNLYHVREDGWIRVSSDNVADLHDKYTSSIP
# Procedure: Cells from the different lines were triturated off the dish, centrifuged, and washed in PBS. The resulting pellets were resuspended in 200-500 μl of lysis buffer (10 mM Tris-HCl, pH 7.8, with 1 mM ATP, and 10% glycerol) (Figueiredo-Pereira et al., A new inhibitor of the chymotrypsin-like activity of the multicatalytic proteinase complex (20S proteasome) induces accumulation of ubiquitin-protein conjugates in a neuronal cell. J. Neurochem., 63:1578-1581, 1994). The cells were left for 20 min on ice and then lysed with 30 strokes of a Dounce homogenizer. The lysates were then centrifuged at 10,000×g for 10 min. Fifty micrograms of protein of the resulting supernatants was included in an assay buffer of 100 mM Tris-HCl, pH 8.0, 2 mM CaCl2, 1 mM ATP, and a 100 μM concentration of the fluorogenic substrate LLVY-7-amino-4-trifluoromethyl coumarin (AFC) (Enzyme Systems Products, Livermore, Calif.) in a total final volume of 1 ml. The assay was performed at 37° C. for 10 min (Figueiredo-Pereira et al., 1994, supra). The activity was then measured in a SLM 8000 fluorometer, with assay buffer without lysate as blank. The activity was linear with respect to the amount of protein (in the range of 25-200 μg of protein).
Molecule,effect on percentage of Trypan blue-positive cells [1],chymotrypsin-like proteasomal activity remaining in lysates of treated cells (proteasome) [%]
Boc-aspartate-fluoromethyl ketone,did not affect,
CC(C)C[C@@H](C=O)NC(=O)[C@H](CC(C)C)NC(=O)[C@H](CC(C)C)NC(=O)OCc1ccccc1 [MG132] (Cbz-Leu-Leu-Leu-aldehyde),,< 5
